From patent publication US20240158393A1, “PYRIDONE COMPOUNDS AND METHODS OF USE” (Exelixis, Inc., priority 2021, published 2024)

How the values were obtained:
Human Axl = molecular target: T1, Human Axl (Homo sapiens, UniProt P30530); assay: Human AXL kinase assay (33P radiometric / HTRF KinEase); format: biochemical; conditions: protocols of Examples A-1 and/or A-2
T1 construct: Human AXL (residues 464-885)
T1 sequence (P30530 1-894 Q764R): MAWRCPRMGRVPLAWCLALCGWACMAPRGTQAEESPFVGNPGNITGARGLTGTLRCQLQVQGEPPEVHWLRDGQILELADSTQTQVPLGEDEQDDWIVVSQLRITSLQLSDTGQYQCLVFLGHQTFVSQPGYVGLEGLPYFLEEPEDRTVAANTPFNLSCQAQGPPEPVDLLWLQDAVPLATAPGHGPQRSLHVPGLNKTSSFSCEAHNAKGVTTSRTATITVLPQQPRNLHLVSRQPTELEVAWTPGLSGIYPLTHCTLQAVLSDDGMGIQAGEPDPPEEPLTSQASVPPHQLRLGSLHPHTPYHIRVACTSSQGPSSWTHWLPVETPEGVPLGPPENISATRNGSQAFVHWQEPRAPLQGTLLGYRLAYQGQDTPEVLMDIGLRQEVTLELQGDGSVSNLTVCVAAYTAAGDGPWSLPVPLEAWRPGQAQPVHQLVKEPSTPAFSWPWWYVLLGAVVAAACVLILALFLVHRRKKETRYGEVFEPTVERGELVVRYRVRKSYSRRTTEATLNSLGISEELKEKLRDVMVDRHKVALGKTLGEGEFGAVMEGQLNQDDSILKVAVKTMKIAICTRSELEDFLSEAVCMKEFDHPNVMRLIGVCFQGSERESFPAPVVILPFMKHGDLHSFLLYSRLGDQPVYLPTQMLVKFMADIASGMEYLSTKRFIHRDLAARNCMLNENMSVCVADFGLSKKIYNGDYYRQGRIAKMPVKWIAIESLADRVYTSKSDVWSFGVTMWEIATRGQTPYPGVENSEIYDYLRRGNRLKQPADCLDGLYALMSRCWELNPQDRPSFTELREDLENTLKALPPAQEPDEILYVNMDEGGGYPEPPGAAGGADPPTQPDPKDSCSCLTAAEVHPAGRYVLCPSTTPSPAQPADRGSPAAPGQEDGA

Human KDR = molecular target: T2, Human KDR (Homo sapiens, UniProt P35968); assay: Human KDR kinase assay (33P radiometric / HTRF KinEase); format: biochemical; conditions: protocols of Examples B-1 and/or B-2
T2 construct: Human KDR (residues K790-V1356, 55 nM); purchased Eurofins Pharma Discovery Services UK Limited (KinaseProfiler, B-1) and/or CarnaBio (B-2)
In short: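 Radiometric: KDR K790-V1356 (55 nM), MOPS pH 7.0, myelin basic protein, 10 μM [γ-33P]ATP, 40 min at room temperature, filter-bound 33P counted; nine half-log doses, top 1 μM. HTRF: KDR 790-1356, 1 μM biotinylated peptide, ATP at Km (4.0 μM), 40 min, 10 doses. IC50 from logistic fits.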

T2 sequence (P35968 790-1356): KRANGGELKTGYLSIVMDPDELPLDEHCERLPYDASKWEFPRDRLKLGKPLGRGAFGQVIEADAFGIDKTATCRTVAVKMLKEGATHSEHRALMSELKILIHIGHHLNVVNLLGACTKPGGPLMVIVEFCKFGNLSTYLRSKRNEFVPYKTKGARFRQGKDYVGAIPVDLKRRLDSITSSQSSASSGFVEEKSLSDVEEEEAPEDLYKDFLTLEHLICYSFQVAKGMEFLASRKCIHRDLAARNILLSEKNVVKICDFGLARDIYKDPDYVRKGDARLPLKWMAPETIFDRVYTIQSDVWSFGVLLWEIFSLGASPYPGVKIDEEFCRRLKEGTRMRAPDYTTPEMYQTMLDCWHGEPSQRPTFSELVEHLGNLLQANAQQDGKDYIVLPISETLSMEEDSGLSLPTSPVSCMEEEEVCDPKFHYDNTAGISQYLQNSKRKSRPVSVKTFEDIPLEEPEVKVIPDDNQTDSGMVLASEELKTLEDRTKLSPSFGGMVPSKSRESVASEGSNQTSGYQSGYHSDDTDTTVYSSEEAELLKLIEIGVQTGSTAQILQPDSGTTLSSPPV

Row | Structure (SMILES) | IC50 (Human Axl) [nM] | IC50 (Human KDR) [nM]
1 | COc1cc2nccc(Oc3ccc(NC(=O)c4cnc(C)c(/C=C/CC(C)C)c4O)cc3F)c2nc1OC [Compound 28, N-[4-[(6,7-Dimethoxy-1,5-naphthyridin-4-yl)oxy]-3-fluorophenyl]-4-hydroxy-6-methyl-5-[(E)-4-methylpent-1-enyl]pyridine-3-carboxamide] | ≤ 100 | ≤ 100
2 | COc1cc2nccc(Oc3ccc(NC(=O)c4cnc(C)c(/C=C/CC(C)C)c4O)cc3F)c2cc1OC [Compound 29, N-[4-(6,7-Dimethoxyquinolin-4-yl)oxy-3-fluorophenyl]-4-hydroxy-6-methyl-5-[(E)-4-methylpent-1-enyl]pyridine-3-carboxamide] | ≤ 100 | ≤ 100
3 | COc1cc2nccc(Oc3ccc(NC(=O)c4cnc(C)c(/C=C/C(C)(C)C)c4O)cc3F)c2cc1OC [Compound 30, N-[4-(6,7-Dimethoxyquinolin-4-yl)oxy-3-fluorophenyl]-5-[(E)-3,3-dimethylbut-1-enyl]-4-hydroxy-6-methylpyridine-3-carboxamide] | ≤ 100 | ≤ 100
4 | COc1cc2nccc(Oc3ccc(NC(=O)c4c(C)nc(C)c(C(C)C)c4O)cc3F)c2nc1OC [Compound 31, N-[4-[(6,7-Dimethoxy-1,5-naphthyridin-4-yl)oxy]-3-fluorophenyl]-4-hydroxy-2,6-dimethyl-5-propan-2-ylpyridine-3-carboxamide] | ≤ 100 | ≤ 100
5 | COc1cnc2c(Oc3ccc(NC(=O)c4c(C)nc(C)c(C(C)C)c4O)cc3F)ccnc2c1 [Compound 32, N-[3-Fluoro-4-[(7-methoxy-1,5-naphthyridin-4-yl)oxy]phenyl]-4-hydroxy-2,6-dimethyl-5-propan-2-ylpyridine-3-carboxamide] | ≤ 100 | ≤ 100
6 | COCCOc1cc2nccc(Oc3ccc(NC(=O)c4cnc(C)c(C5=CCCC5)c4O)cc3F)c2nc1OC [Compound 33, 5-(Cyclopenten-1-yl)-N-[3-fluoro-4-[[6-methoxy-7-(2-methoxyethoxy)-1,5-naphthyridin-4-yl]oxy]phenyl]-4-hydroxy-6-methylpyridine-3-carboxamide] | ≤ 100 | ≤ 100
7 | COCCOc1cc2nccc(Oc3ccc(NC(=O)c4cnc(C)c(C5=CCCCC5)c4O)cc3F)c2nc1OC [Compound 34, 5-(Cyclohexen-1-yl)-N-[3-fluoro-4-[[6-methoxy-7-(2-methoxyethoxy)-1,5-naphthyridin-4-yl]oxy]phenyl]-4-hydroxy-6-methylpyridine-3-carboxamide] | ≤ 100 | ≤ 100
8 | COCCOc1cc2nccc(Oc3ccc(NC(=O)c4cnc(C)c(C5=CCOCC5)c4O)cc3F)c2nc1OC [Compound 35, 5-(3,6-Dihydro-2H-pyran-4-yl)-N-[3-fluoro-4-[[6-methoxy-7-(2-methoxyethoxy)-1,5-naphthyridin-4-yl]oxy]phenyl]-4-hydroxy-6-methylpyridine-3-carboxamide] | ≤ 100 | ≤ 100
9 | COCCOc1cc2nccc(Oc3ccc(NC(=O)c4cnc(C)c(/C=C/C5CCCC5)c4O)cc3F)c2nc1OC [Compound 36, 5-[(E)-2-Cyclopentylethenyl]-N-[3-fluoro-4-[[6-methoxy-7-(2-methoxyethoxy)-1,5-naphthyridin-4-yl]oxy]phenyl]-4-hydroxy-6-methylpyridine-3-carboxamide] | ≤ 100 | ≤ 100
10 | COCCOc1cc2nccc(Oc3ccc(NC(=O)c4cnc(C)c(/C=C/C5CC5)c4O)cc3F)c2nc1OC [Compound 37, 5-[(E)-2-Cyclopropylethenyl]-N-[3-fluoro-4-[[6-methoxy-7-(2-methoxyethoxy)-1,5-naphthyridin-4-yl]oxy]phenyl]-4-hydroxy-6-methylpyridine-3-carboxamide] | ≤ 100 | ≤ 100
11 | COc1cc2nccc(Oc3ccc(NC(=O)c4c(C)ccn(C(C)C)c4=O)cc3F)c2nc1OC [Compound 38, N-[4-[(6,7-Dimethoxy-1,5-naphthyridin-4-yl)oxy]-3-fluorophenyl]-4-methyl-2-oxo-1-propan-2-ylpyridine-3-carboxamide] | 100 to 300 | 100 to 300
12 | COc1cc2nccc(Oc3ccc(NC(=O)c4c(C)ccn(C(C)C)c4=O)cc3)c2nc1OC [Compound 39, N-[4-[(6,7-Dimethoxy-1,5-naphthyridin-4-yl)oxy]phenyl]-4-methyl-2-oxo-1-propan-2-ylpyridine-3-carboxamide] | > 300 | > 300
13 | COCCOc1cc2nccc(Oc3ccc(NC(=O)c4cnc(C)c(/C=C/C(C)(C)C)c4O)cc3F)c2nc1OC [Compound 40, 5-[(E)-3,3-Dimethylbut-1-enyl]-N-[3-fluoro-4-[[6-methoxy-7-(2-methoxyethoxy)-1,5-naphthyridin-4-yl]oxy]phenyl]-4-hydroxy-6-methylpyridine-3-carboxamide] | ≤ 100 | ≤ 100
14 | COCCOc1cc2nccc(Oc3ccc(NC(=O)c4c(C)nc(C)c(C5=CCCC5)c4O)cc3F)c2nc1OC [Compound 41, 5-(Cyclopenten-1-yl)-N-[3-fluoro-4-[[6-methoxy-7-(2-methoxyethoxy)-1,5-naphthyridin-4-yl]oxy]phenyl]-4-hydroxy-2,6-dimethylpyridine-3-carboxamide] | ≤ 100 | ≤ 100
15 | COCCOc1cc2nccc(Oc3ccc(NC(=O)c4c(C)n(C)c(C)c(C5=CCCC5)c4=O)cc3F)c2nc1OC [Compound 42, 5-(Cyclopenten-1-yl)-N-[3-fluoro-4-[[6-methoxy-7-(2-methoxyethoxy)-1,5-naphthyridin-4-yl]oxy]phenyl]-1,2,6-trimethyl-4-oxopyridine-3-carboxamide] | ≤ 100 | ≤ 100
16 | COCCOc1cc2nccc(Oc3ccc(NC(=O)c4c(C)nc(C)c(C5=CCOCC5)c4O)cc3F)c2nc1OC [Compound 43, 5-(3,6-Dihydro-2H-pyran-4-yl)-N-[3-fluoro-4-[[6-methoxy-7-(2-methoxyethoxy)-1,5-naphthyridin-4-yl]oxy]phenyl]-4-hydroxy-2,6-dimethylpyridine-3-carboxamide] | ≤ 100 | ≤ 100
17 | COCCOc1cc2nccc(Oc3ccc(NC(=O)c4c(O)c(C5=CCOCC5)c(C)[n+](C)c4C)cc3F)c2nc1OC [Compound 44, 5-(3,6-Dihydro-2H-pyran-4-yl)-N-[3-fluoro-4-[[6-methoxy-7-(2-methoxyethoxy)-1,5-naphthyridin-4-yl]oxy]phenyl]-1,2,6-trimethyl-4-oxopyridine-3-carboxamide] | ≤ 100 | 100 to 300
18 | COCCOc1cc2nccc(Oc3ccc(NC(=O)c4c(C)n(C)c(C)c(/C=C/C(C)(C)C)c4=O)cc3F)c2nc1OC [Compound 45, 5-[(E)-3,3-Dimethylbut-1-enyl]-N-[3-fluoro-4-[[6-methoxy-7-(2-methoxyethoxy)-1,5-naphthyridin-4-yl]oxy]phenyl]-1,2,6-trimethyl-4-oxopyridine-3-carboxamide] | ≤ 100 | ≤ 100
19 | COc1cc2nccc(Oc3ccc(NC(=O)c4c(C)n(C)c(C)c(C5CC5)c4=O)cc3F)c2nc1OC [Compound 46, 5-Cyclopropyl-N-[4-[(6,7-dimethoxy-1,5-naphthyridin-4-yl)oxy]-3-fluorophenyl]-1,2,6-trimethyl-4-oxopyridine-3-carboxamide] | 100 to 300 | > 300
20 | COc1cc2nccc(Oc3cc(F)c(NC(=O)c4c(C)n(C)c(C)c(C5CC5)c4=O)cc3F)c2nc1OC [Compound 47, 5-Cyclopropyl-N-[4-[(6,7-dimethoxy-1,5-naphthyridin-4-yl)oxy]-2,5-difluorophenyl]-1,2,6-trimethyl-4-oxopyridine-3-carboxamide] | ≤ 100 | > 300
21 | COc1cc2nccc(Oc3ccc(NC(=O)c4c(C)n(C)c(C)c(C5CC5)c4=O)cc3)c2nc1OC [Compound 48, 5-Cyclopropyl-N-[4-[(6,7-dimethoxy-1,5-naphthyridin-4-yl)oxy]phenyl]-1,2,6-trimethyl-4-oxopyridine-3-carboxamide] | ≤ 100 | > 300
22 | COc1cc2nccc(Oc3ccc(NC(=O)c4c(C)n(C)c(C)c(/C=C/C(C)(C)C)c4=O)cc3F)c2nc1OC [Compound 49, N-[4-[(6,7-Dimethoxy-1,5-naphthyridin-4-yl)oxy]-3-fluorophenyl]-5-[(E)-3,3-dimethylbut-1-enyl]-1,2,6-trimethyl-4-oxopyridine-3-carboxamide] | ≤ 100 | ≤ 100
